In patent US20150289513A1, “USE OF A COMPOUND COMPRISING A POLYFLUOROBENZYL MOIETY AGAINST INSECTICIDE-RESISTANT PESTS” (priority 2012, published 2015):

Experiments:
[1] = test system: Anopheles gambiae (target-site-resistant and metabolic-resistant strain: RSPH); experiment: Glazed tile contact test, knock-down; type: in vivo
Procedure: (§1) To produce a suitable preparation Transfluthrin was dissolved in acetone. The active compound solution was pipetted onto a glazed tile and, after drying, adult mosquitoes of the species: • Anopheles gambiae (target-site-resistant and metabolic-resistant strain: RSPH), • Anopheles gambiae (target-site-resitant and metabolic-resistant strain: Tiassalé), • Anopheles gambiae (tar et-site-resitant and metabolic-resistant strain: Akron), • Anopheles gambiae (target-site-resistant strain: VK7), and • Anopheles funestus (metabolic-resistant strain FUMOZ-R) were placed onto the treated tile (each strain was tested on separate tiles). The exposition time was 30 minutes.
(§2) 0.25 hours, 0.5 hours, 1 hour, 2 hour, 3 hour, 4 hour and 24 hours after contact to the treated surface, the knock-down proportion of the test animals in % was determined. Here, 100% (effect) means that all mosquitoes have been killed; 0% (effect) means that none of the mosquitoes have been killed.
Similarly as outlined in example 2 for Transfluthrin, Metofluthrin efficacy was assessed against • Anopheles gambiae (target-site-resistant and metabolic-resistant strain: RSPH), • Anopheles funestus (metabolic-resistant strain FUMOZ-R), and • Culex quinquefasciatus (metabolic-resistant to DDT; strain P00), with the results shown in Tables 10 to 12. 0.25 hours, 0.5 hours, 1 hour, 2 hour, 3 hour, 4 hour and 24 hours after contact to the treated surface, the knock-down proportion of the test animals in % is depicted in Tables 10 to 12. 100% (effect) means that all mosquitoes have been killed; 0% (effect) means that none of the mosquitoes have been killed.
Similarly as outlined in example 2 for Transfluthrin, Metofluthrin efficacy was assessed against • Anopheles gambiae (target-site-resistant and metabolic-resistant strain: RSPH), • Anopheles funestus (metabolic-resistant strain FUMOZ-R), and with the results shown in Tables […]. 0.25 hours, 0.5 hours, 1 hour, 2 hour and 3 hours after contact to the treated surface, the knock-down proportion of the test animals in % is depicted in Tables 13 to 14. 100% (effect) means that all mosquitoes have been killed; 0% (effect) means that none of the mosquitoes have been killed.

[2] = test system: Anopheles gambiae (strain: Tiassalé); experiment: Glazed tile contact test, knock-down; type: in vivo
Procedure: as §1, §2

[3] = 0.064 g/ha, 0.25 h after contact
[4] = 0.064 g/ha, 0.5 h after contact
[5] = 0.32 g/ha, 0.25 h after contact

CC=CC1C(C(=O)OCc2c(F)c(F)c(COC)c(F)c2F)C1(C)C (stereo not shown) [Metofluthrin, 2,3,5,6-Tetrafluoro-4-(methoxymethyl)benzyl 2,2-dimethyl-3-(prop-1-en-1-yl)cyclopropanecarboxylate]
Effect % [1, 3]: 0% | Effect % [1, 4]: 0% | Effect % ([1]; 0.064 g/ha, 1 h after contact): 0% | Effect % ([1]; 0.064 g/ha, 2 h after contact): 0% | Effect % ([1]; 0.064 g/ha, 3 h after contact): 0% | Effect % ([1]; 0.064 g/ha, 4 h after contact): 10% | Effect % ([1]; 0.064 g/ha, 24 h after contact): 20% | Effect % [1, 5]: 0% | Effect % ([1]; 0.32 g/ha, 0.5 h after contact): 10% | Effect % ([1]; 0.32 g/ha, 1 h after contact): 10% | Effect % ([1]; 0.32 g/ha, 2 h after contact): 10% | Effect % ([1]; 0.32 g/ha, 3 h after contact): 0% | Effect % ([1]; 0.32 g/ha, 4 h after contact): 10% | Effect % ([1]; 0.32 g/ha, 24 h after contact): 20% | Effect % ([1]; 1.6 g/ha, 0.25 h after contact): 100% | Effect % ([1]; 1.6 g/ha, 0.5 h after contact): 100% | Effect % ([1]; 1.6 g/ha, 1 h after contact): 100% | Effect % ([1]; 1.6 g/ha, 2 h after contact): 100% | Effect % ([1]; 1.6 g/ha, 3 h after contact): 100% | Effect % ([1]; 1.6 g/ha, 4 h after contact): 100% | Effect % ([1]; 1.6 g/ha, 24 h after contact): 100% | Effect % ([1]; 8 g/ha, 0.25 h after contact): 100% | Effect % ([1]; 8 g/ha, 0.5 h after contact): 100% | Effect % ([1]; 8 g/ha, 1 h after contact): 100% | Effect % ([1]; 8 g/ha, 2 h after contact): 100% | Effect % ([1]; 8 g/ha, 3 h after contact): 100% | Effect % ([1]; 8 g/ha, 4 h after contact): 100% | Effect % ([1]; 8 g/ha, 24 h after contact): 100% | Effect % ([1]; 40 g/ha, 0.25 h after contact): 100% | Effect % ([1]; 40 g/ha, 0.5 h after contact): 100% | Effect % ([1]; 40 g/ha, 1 h after contact): 100% | Effect % ([1]; 40 g/ha, 2 h after contact): 100% | Effect % ([1]; 40 g/ha, 3 h after contact): 100% | Effect % ([1]; 40 g/ha, 4 h after contact): 100% | Effect % ([1]; 40 g/ha, 24 h after contact): 100% | Effect % ([1]; 200 g/ha, 0.25 h after contact): 100% | Effect % ([1]; 200 g/ha, 0.5 h after contact): 100% | Effect % ([1]; 200 g/ha, 1 h after contact): 100% | Effect % ([1]; 200 g/ha, 2 h after contact): 100% | Effect % ([1]; 200 g/ha, 3 h after contact): 100% | Effect % ([1]; 200 g/ha, 4 h after contact): 100% | Effect % ([1]; 200 g/ha, 24 h after contact): 100% | Effect % ([1]; 1000 g/ha, 0.25 h after contact): 100% | Effect % ([1]; 1000 g/ha, 0.5 h after contact): 100% | Effect % ([1]; 1000 g/ha, 1 h after contact): 100% | Effect % ([1]; 1000 g/ha, 2 h after contact): 100% | Effect % ([1]; 1000 g/ha, 3 h after contact): 100% | Effect % ([1]; 1000 g/ha, 4 h after contact): 100% | Effect % ([1]; 1000 g/ha, 24 h after contact): 100%

CC1(C)[C@H](C=C(Cl)Cl)[C@H]1C(=O)OCc1c(F)c(F)cc(F)c1F [Transfluthrin, (1R,3S)-3-(2,2-Dichlorovinyl)-2,2-dimethyl-1-cyclopropanecarboxylic acid (2,3,5,6-tetrafluorophenyl)methyl ester]
Effect % [2, 3]: 5% | Effect % [2, 4]: 10% | Effect % ([2]; 0.064 g/ha, 1 h after contact): 15% | Effect % ([2]; 0.064 g/ha, 2 h after contact): 15% | Effect % ([2]; 0.064 g/ha, 3 h after contact): 15% | Effect % ([2]; 0.064 g/ha, 4 h after contact): 10% | Effect % ([2]; 0.064 g/ha, 24 h after contact): 20% | Effect % [2, 5]: 5% | Effect % ([2]; 0.32 g/ha, 0.5 h after contact): 15% | Effect % ([2]; 0.32 g/ha, 1 h after contact): 5% | Effect % ([2]; 0.32 g/ha, 2 h after contact): 10% | Effect % ([2]; 0.32 g/ha, 3 h after contact): 10% | Effect % ([2]; 0.32 g/ha, 4 h after contact): 10% | Effect % ([2]; 0.32 g/ha, 24 h after contact): 15% | Effect % ([2]; 1.6 g/ha, 0.25 h after contact): 0% | Effect % ([2]; 1.6 g/ha, 0.5 h after contact): 15% | Effect % ([2]; 1.6 g/ha, 1 h after contact): 10% | Effect % ([2]; 1.6 g/ha, 2 h after contact): 5% | Effect % ([2]; 1.6 g/ha, 3 h after contact): 5% | Effect % ([2]; 1.6 g/ha, 4 h after contact): 0% | Effect % ([2]; 1.6 g/ha, 24 h after contact): 10% | Effect % ([2]; 8 g/ha, 0.25 h after contact): 90% | Effect % ([2]; 8 g/ha, 0.5 h after contact): 100% | Effect % ([2]; 8 g/ha, 1 h after contact): 100% | Effect % ([2]; 8 g/ha, 2 h after contact): 85% | Effect % ([2]; 8 g/ha, 3 h after contact): 80% | Effect % ([2]; 8 g/ha, 4 h after contact): 85% | Effect % ([2]; 8 g/ha, 24 h after contact): 60% | Effect % ([2]; 40 g/ha, 0.25 h after contact): 100% | Effect % ([2]; 40 g/ha, 0.5 h after contact): 100% | Effect % ([2]; 40 g/ha, 1 h after contact): 100% | Effect % ([2]; 40 g/ha, 2 h after contact): 95% | Effect % ([2]; 40 g/ha, 3 h after contact): 90% | Effect % ([2]; 40 g/ha, 4 h after contact): 85% | Effect % ([2]; 40 g/ha, 24 h after contact): 85% | Effect % ([2]; 200 g/ha, 0.25 h after contact): 100% | Effect % ([2]; 200 g/ha, 0.5 h after contact): 100% | Effect % ([2]; 200 g/ha, 1 h after contact): 100% | Effect % ([2]; 200 g/ha, 2 h after contact): 100% | Effect % ([2]; 200 g/ha, 3 h after contact): 100% | Effect % ([2]; 200 g/ha, 4 h after contact): 100% | Effect % ([2]; 200 g/ha, 24 h after contact): 85%
